# In PubChem BioAssay (NCI):
#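 Method: 48-hour compound exposure of cells in 96-well plates, five concentrations, linear interpolation of endpoints. TGI is the concentration that stops growth completely.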
# How the values were obtained:
# Experiment in all cases: NCI anticancer screen, dose series, 48 h
# SF-539 CNS = system: SF-539 CNS
# SNB-78 CNS = system: SNB-78 CNS
# SK-MEL-2 melanoma = system: SK-MEL-2 melanoma
# LOX IMVI melanoma = system: LOX IMVI melanoma
# HOP-62 NSCLC = system: HOP-62 NSCLC
# HCC-2998 colon = system: HCC-2998 colon
# SF-268 CNS = system: SF-268 CNS
# OVCAR-4 ovarian = system: OVCAR-4 ovarian
# UACC-257 melanoma = system: UACC-257 melanoma
# TK-10 renal = system: TK-10 renal
# MOLT-4 leukemia = system: MOLT-4 leukemia
# IGROV1 ovarian = system: IGROV1 ovarian
# CAKI-1 renal = system: CAKI-1 renal
# NCI-H522 lung = system: NCI-H522 lung
# ACHN renal = system: ACHN renal
# SNB-75 CNS = system: SNB-75 CNS
# RXF 393 renal = system: RXF 393 renal
# HT29 colon = system: HT29 colon
# KM20L2 colon = system: KM20L2 colon
# LXFL 529 NSCLC = system: LXFL 529 NSCLC
# OVCAR-5 ovarian = system: OVCAR-5 ovarian
# EKVX NSCLC = system: EKVX NSCLC
# KM12 colon = system: KM12 colon
# NCI-H226 lung = system: NCI-H226 lung
# SNB-19 CNS = system: SNB-19 CNS
# CCRF-CEM leukemia = system: CCRF-CEM leukemia
# A498 renal = system: A498 renal
# 786-0 renal = system: 786-0 renal
# SK-MEL-28 melanoma = system: SK-MEL-28 melanoma
# SW-620 colon = system: SW-620 colon
# XF 498 CNS = system: XF 498 CNS
# U251 CNS = system: U251 CNS
# HOP-92 NSCLC = system: HOP-92 NSCLC
# RXF-631 renal = system: RXF-631 renal
# COLO 205 colon = system: COLO 205 colon
# DMS 114 small cell lung = system: DMS 114 small cell lung
# SK-MEL-5 melanoma = system: SK-MEL-5 melanoma
# UO-31 renal = system: UO-31 renal
# SF-295 CNS = system: SF-295 CNS
# RPMI-8226 leukemia = system: RPMI-8226 leukemia
# OVCAR-8 ovarian = system: OVCAR-8 ovarian
# OVCAR-3 ovarian = system: OVCAR-3 ovarian
# NCI-H460 lung = system: NCI-H460 lung
# MALME-3M melanoma = system: MALME-3M melanoma
# K-562 leukemia = system: K-562 leukemia
# NCI-H23 lung = system: NCI-H23 lung
# A549 NSCLC = system: A549 NSCLC
# DLD-1 colon = system: DLD-1 colon
# M14 melanoma = system: M14 melanoma
# M19-MEL melanoma = system: M19-MEL melanoma
# SN12C renal = system: SN12C renal
# HL-60(TB) leukemia = system: HL-60(TB) leukemia
smiles,measurement,setting,value
COc1cc(C2C(C(=O)Nc3cc(F)c(F)cc3F)=C(C)NC(C)=C2C(=O)Nc2cc(F)c(F)cc2F)ccc1O,TGI,SF-539 CNS,59.6 µM
same,TGI,SNB-78 CNS,> 100 µM
same,TGI,SK-MEL-2 melanoma,79.1 µM
same,TGI,LOX IMVI melanoma,32.9 µM
same,TGI,HOP-62 NSCLC,97.9 µM
same,TGI,HCC-2998 colon,33.4 µM
same,TGI,SF-268 CNS,> 100 µM
same,TGI,OVCAR-4 ovarian,> 100 µM
same,TGI,UACC-257 melanoma,54.8 µM
same,TGI,TK-10 renal,87.9 µM
same,TGI,MOLT-4 leukemia,45.2 µM
same,TGI,IGROV1 ovarian,> 100 µM
same,TGI,CAKI-1 renal,42.8 µM
same,TGI,NCI-H522 lung,36.3 µM
same,TGI,ACHN renal,65.3 µM
same,TGI,SNB-75 CNS,25.8 µM
same,TGI,RXF 393 renal,52.2 µM
same,TGI,HT29 colon,> 100 µM
same,TGI,KM20L2 colon,> 100 µM
same,TGI,LXFL 529 NSCLC,> 100 µM
same,TGI,OVCAR-5 ovarian,59.9 µM
same,TGI,EKVX NSCLC,73.9 µM
same,TGI,KM12 colon,35.8 µM
same,TGI,NCI-H226 lung,79.5 µM
same,TGI,SNB-19 CNS,> 100 µM
same,TGI,CCRF-CEM leukemia,45.6 µM
same,TGI,A498 renal,55.3 µM
same,TGI,786-0 renal,> 100 µM
same,TGI,SK-MEL-28 melanoma,> 100 µM
same,TGI,SW-620 colon,> 100 µM
same,TGI,XF 498 CNS,33.1 µM
same,TGI,U251 CNS,> 100 µM
same,TGI,HOP-92 NSCLC,18.4 µM
same,TGI,RXF-631 renal,37.9 µM
same,TGI,COLO 205 colon,> 100 µM
same,TGI,DMS 114 small cell lung,41.8 µM
same,TGI,SK-MEL-5 melanoma,53.9 µM
same,TGI,UO-31 renal,35.5 µM
same,TGI,SF-295 CNS,55.3 µM
same,TGI,RPMI-8226 leukemia,47.3 µM
same,TGI,OVCAR-8 ovarian,96.7 µM
same,TGI,OVCAR-3 ovarian,38 µM
same,TGI,NCI-H460 lung,> 100 µM
same,TGI,MALME-3M melanoma,74.5 µM
same,TGI,K-562 leukemia,49.6 µM
same,TGI,NCI-H23 lung,52.8 µM
same,TGI,A549 NSCLC,95.8 µM
same,TGI,DLD-1 colon,> 100 µM
same,TGI,M14 melanoma,> 100 µM
same,TGI,M19-MEL melanoma,77.3 µM
same,TGI,SN12C renal,84.5 µM
same,TGI,HL-60(TB) leukemia,40.7 µM
